According to patent US7846469B2, “Reversible inhibition of sperm receptor synthesis for contraception” (The Penn State Research Foundation, priority 2006, dated 2010):
“And” between values parts separate entries of the source, which are not always exact repeats. Equal entries are not always repeated.

Tests used:
chicken ZPC = assay: Western blot for chicken ZPC in isolated hen granulosa cells treated with nicarbazin; format: cell-based
Protocol: FIG. 1 is a Western blot of chicken ZPC proteins.
In a preliminary effort to support this hypothesis, we isolated granulosa cells from primary follicles of a laying hen, and suspended them in a simple cell culture media (1 ml medium (M)199-HEPES supplemented with Hank salts (Gibco-BRL) plus 1 ml Dulbecco modified Eagle medium (DMEM) containing 5% FBS). […] The cells were then disrupted with a sonicator and proteins precipitated and heat solubilized per Barbato et al. (1998). Proteins were concentrated, separated via gel electrophoresis and western blot performed with antibodies to chicken ZPC.

Pekin Ducks = assay: Dose-response feeding study in Pekin ducks: egg production and fertility; format: in vivo, duck
From the text: FIG. 3 depicts the fertility of laid eggs obtained from Pekin Ducks fed varying doses of nicarbazin.
(§1) [Images were taken at 20× magnification with DAPI fluorescent stain.]
(§2) Our first study determined the dose-response relationship for the effect of nicarbazin in reducing egg production and/or hatchability in ducks.
Since all hens in this experiment were artificially inseminated with sperm from untreated drakes, the effects on subsequent fertility were considered to be due entirely to the effect of nicarbazin on the female ducks. […] Further, upon the withdrawal of nicarbazin-treated feed, even the hens receiving the highest dose of nicarbazin returned to normal egg production and fertility within 10 days.

[1] = DNC concentrations in blood and laid eggs of ducks fed nicarbazin; format: in vivo, duck; settings: 31.25-500 ppm in feed
From the text: as §2

ZPC = assay: Western blot of ZPC in oocyte (perivitelline) membrane of laid eggs from fed ducks; format: in vivo, duck
From the text: Drug feeding began in Week 2; making Week 1 and internal control.
A subsample of eggs were collected during each week of the experiment, in order to dissect, extract and identify the ZPC in the oocyte membrane using and anti-ZPC antibody and western blotting technique. FIG. 4 illustrates that at the 500 ppm dose of nicarbazin, ZPC was undetectable after the 1st week of treatment, and remained absent thereafter.

[2] = system: sperm attaching to the oocyte; assay: Sperm count on oocyte membrane of eggs from fed, inseminated ducks; format: in vivo, duck; settings: membranes of eggs from nicarbazin-treated ducks
From the text: as §1
Since there appeared to be a decrease in the amount of ZPC (the primary sperm receptor) present in the duck oocyte membranes, we reasoned that the lack of fertility in any laid eggs should be due to a decline in sperm attaching to the oocyte. FIG. 5 illustrates a pair of sample membranes from both control and nicarbazin treated ducks. Consistent with previous data from our lab (e.g., Barbato et al., 1998) 228±15 sperm/mm2 of oocyte membrane were found in eggs from control ducks, whereas there were 0±15 sperm/mm2 counted on the membranes from nicarbazin-treated ducks.

[3] = system: inner perivitelline membrane (85% ZPC protein); assay: Electron microscopy of inner perivitelline membrane of mature follicle from fed laying hens; format: in vivo, chicken; settings: 250 ppm nicarbazin treated feed
From the text: FIG. 6 is an electron micrograph of a mature follicle from control (C) and nicarbazin treated (T) hens.
As a follow-up experiment, we fed a group of 6 laying hens the 250 ppm nicarbazin treated feed, in an attempt to reduce, but not eliminate, ZPC synthesis. Egg membranes were collected from laid eggs and the most mature follicle dissected from both treated and control hens. The membranes were fixed with osmium tetroxide, sectioned via microtome and viewed with electron microscopy.
This micrograph provides direct, visual confirmation of the previously presented data: that is, that oral nicarbazin dosages reduces the ZP3 content of the oocyte membrane.

rat ZPC = assay: Western blot for ZPC in rat ovarian tissue after 1 week of nicarbazin feeding; format: in vivo; settings: 500 ppm with 5% propylene glycol, band at approx. 50 kDa
From the text: FIG. 7 is a Western Blot (using mouse ZPC monoclonal antibody) of rat ovarian tissue after 1 week of nicarbazin feeding. [mZPC-mab 1:2000; similar results obtained with dilution of 1:5000 and 1:10000.
(§3) In an attempt to increase nicarbazin absorption in a mammalian species we paired nicarbazin with a typical pharmaceutical carrier, 5% propylene glycol (PGC). A 500 ppm dose was fed to 8 adult, female rats for a 7-day period, at which time the rats were killed and the ovaries removed and placed in RNAlater (to preserve protein, RNA and DNA—4 control rats were also sacrificed). Ovarian proteins and mRNA were extracted via standard laboratory protocols. FIG. 7 illustrates the results of a western blot for ZPC, using a murine monoclonal antibody (which cross-reacts with rat ZPC).

rat ZPC mRNA = assay: Quantitative rtPCR of ZPC (ZP3) mRNA copy number in rat ovarian tissue; format: in vivo
From the text: as §3
Upon finding a reduction in ZPC-immunoreactive band intensity from ovarian samples obtained from treated animals, we designed PCR primers to identify mRNA for rat ZPC. By applying the quantitative rtPCR technique we were able to estimate the number of copies of the ZPC mRNA that were present in the ovarian tissue samples.

mice = assay: Direct feeding experiment with mating pairs of mice; format: in vivo, mouse
Protocol: The indirect biochemical evidence in the previous section led us to attempt a direct feeding experiment with mice. In this case, mice were fed a 0.5% nicarbazin diet (containing 5% propylene glycol). In addition, 7.5% peanut butter was added to the diet to increase palatability. Ten mating pairs of mice were given access to the diet for 4-5 hrs over a […].

fruit fly = assay: Nicarbazin in fruit fly media; format: in vivo; settings: ethanol carrier
Protocol: According to the invention, nicarbazin specifically influences the expression of the zona pellucida 3 gene and protein in vertebrates. It is expected that other homologs of the ZP3 gene will also be negatively affected by nicarbazine. For example, there is an insect homolog of ZP3 that is a structural component of the wing vein. Nicarbazin interferes with the expression of the insect homolog in the same manner as the vertebrate Gene.
In a quick experiment, 3-5% nicarbazin preparation was added to the media (food) in fruit fly vials using ethanol as a carrier (since fruit flies are attracted to ethanol).

broiler-breeder hens = settings: cited from earlier work
FDRL rats = settings: high dose (300 mg/kg bw per day phenylurea, 100 mg/kg bw per day pyrimidone), F2a and F3a litters; cited from earlier work

## equimolar complex of 1,3-N,N′-bis(4-nitrophenyl)urea and 4,6-dimethyl-2(1H)-pyrimidone [nicarbazin]
Chicken ZPC; 100 mM nicarbazin, granulosa cells
  cell viability: all cells were dead
Chicken ZPC; granulosa cells from primary follicles of a laying hen, lanes 4-6 (1, 10, 100 mM nicarbazin)
  immunoreactive ZPC (western blot): absence of immunoreactive ZPC
Pekin Ducks; 500 ppm nicarbazin ducks, inseminated with 200 million sperm, of 5 eggs set
  fertility of eggs: 20%
Pekin Ducks; ducks fed 31.25-500 ppm, FIG. 2
  egg production: decline in egg production
Pekin Ducks; highest dose, after withdrawal of nicarbazin-treated feed
  time to return to normal egg production and fertility after withdrawal: ≤ 10 days
Pekin Ducks; oral doses 31.25-500 ppm, hens inseminated with sperm from untreated drakes, FIG. 3
  fertility of eggs laid by treated hens: profound effect
[1]
  DNC concentrations in blood and laid eggs versus fed nicarbazin dose: linear dose-concentration relationship
ZPC; 250 ppm dose, over time
  ZPC in oocyte membrane (western blot): clear decline in the intensity of ZPC
ZPC; 500 ppm dose, after the 1st week of treatment
  ZPC in oocyte membrane (western blot): undetectable
[2]
  sperm on oocyte membrane: 0±15 sperm/mm2
[3]
  width of the inner perivitelline membrane (electron micrograph): reduction in width
Rat ZPC
  ZPC immunoreactive band intensity (western blot): reduction in intensity
Rat ZPC mRNA; individual rats fed nicarbazin 500 ppm for 1 week, ovarian tissue
  ZP3 mRNA copy number, mean of triplicate estimate per rat: 0.47 and 0.95 (2×) and 0.75 and 0.50 and 0.85 and 0.77
Rat ZPC mRNA; rats fed nicarbazin for 1 week, ovarian tissue, control overall mean 1.00, P = 0.03
  ZP3 mRNA copy number, overall mean: 0.71
Rat ZPC mRNA; rats fed nicarbazin versus control
  reduction in copy number of the ZPC gene: 30%
mice; mice, 0.5% nicarbazin diet with 5% propylene glycol and 7.5% peanut butter, ten mating pairs, non-treated 90%
  conception rate: 10%
mice; mice, 0.5% nicarbazin diet, non-treated averaging 6 pups per litter
  pups per litter: 0.2 pups/litter
mice; previously treated mice mated over the next month
  reversibility after removal of treated feed: conceived normal litters
mice; pups of treated mice
  teratogenic effects in pups: no sign of teratogenic effects
Fruit fly; 3% nicarbazin preparation in media
  fly phenotype: deformed wings and could not fly
Fruit fly; 5% nicarbazin preparation in media
  hatching of fruit fly eggs: did not hatch
broiler-breeder hens; after removal from the feed
  time to return of normal hatchability and egg production after removal of nicarbazin from feed: 7 to 10 days
broiler-breeder hens; higher levels (ca. 700 ppm) in feed
  egg production: eliminated egg production entirely
broiler-breeder hens; lower levels of nicarbazin (<125 ppm) in feed
  hatchability of fertile eggs: significant reduction in hatchability
FDRL rats
  litter size: slightly fewer pups
